Experimental data reported in article PMC9030827, “In Vitro Effects of Mitochondria-Targeted Antioxidants in a Small-Cell Carcinoma of the Ovary of Hypercalcemic Type and in Type 1 and Type 2 Endometrial Cancer” (Biomedicines, 2022).
“Also recorded” adds a separate entry of the source. Where two headings read alike, the source gives them in different places.

Experiments:
Ishikawa cells [1] = test: Cell morphology by Giemsa staining; type: cell-based, human; settings: 72 h, 5 μM Mito6_TPP, 20 μM Mito6_picol., 10 μM Mito6_isoq.
Procedure: (§1) Morphological changes in all cell lines were evaluated by phase-contrast microscopy (Eclipse TS100 Inverted Microscope, Nikon, Tokyo, Japan) and Giemsa staining. […] The cells were plated in 24-well plates with coverslips using the densities of 1 × 10^5 cells/well in Ishikawa and Hec50co and 2.5 × 10^5 cells/well in COV434 and HFF-1. After adherence, the cells were treated with Mito6_TPP (5 μM), Mito6_picol. (20 μM), or Mito6_isoq. (10 μM) and incubated at 37 °C with 5% CO2 for 72 h. For Giemsa staining, the cells were fixated with paraformaldehyde 4% in Phosphate Buffered Saline (PBS) for 15 min, stained with Giemsa solution for 30 min, mounted with DPX, and observed through bright field microscopy. For Höechst staining, the cells were incubated with 0.5 μg/mL Höechst 33342 in PBS for 20 min in the dark, mounted in Fluoroshield, and observed under a fluorescence microscope equipped with an excitation filter with maximum transmission at 360/400 nm. In both stainings, the cells were observed using the microscope Eclipse CI (Nikon, Japan) and the images were processed with Nikon NIS Elements Image Software (Nikon, Japan).

COV434 cells [2] = test: Cell morphology by Giemsa staining; type: cell-based, human; settings: COV434, 72 h; 5 μM Mito6_TPP, 20 μM Mito6_picol., 10 μM Mito6_isoq.
Procedure: as §1

Ishikawa cells [3] = test: Mitochondrial membrane potential (Δψm) assessment, DiOC6 probe; type: cell-based, human; settings: 48 h, 5 μM Mito6_TPP, 20 μM Mito6_picol., 10 μM Mito6_isoq.
Procedure: (§2) The Ishikawa, Hec50co, COV434, and HFF-1 cell lines were plated at a density of 5 × 10^4 cells/well in black 96-well plates. After 24 h, the cells were treated with Mito6_TPP (5 μM), Mito6_picol. (20 μM), or Mito6_isoq. (10 μM) and incubated at 37 °C with 5% CO2 for 48 h. The Δψm study was adapted from the work of Sivandzade et al.. The mitochondrial membrane-depolarizing agent carbonyl cyanide m-chlorophenylhydrazone (CCCP) (50 μM) was used as the positive control, being added to the cells for 20 min prior to the addition of the probe DiOC6 (100 nM) for 30 min at 37 °C in the dark. The fluorescence was then measured using a BioTek Synergy HTX Multi-Mode Microplate Fluorimeter equipped with BioTek Gen5 Data Collection and Analysis Software (BioTek Instruments, Winooski, VT, USA) (excitation: 488 nm; emission: 525 nm).

COV434 cells [4] = test: as above; type: cell-based, human; settings: COV434, 48 h; 5 μM Mito6_TPP, 20 μM Mito6_picol., 10 μM Mito6_isoq.
Procedure: as §2

Hec50co cells = test: as above; type: cell-based, human; settings: 48 h, 5 μM Mito6_TPP, 20 μM Mito6_picol., 10 μM Mito6_isoq.
Procedure: as §2

HFF-1 cells = test: MTT cell viability assay; type: cell-based; settings: Homo sapiens
Procedure: Experiments were performed using the following cell lines: Ishikawa, Hec50co, COV434, and HFF-1. The Ishikawa cell line (RRID: CVCL_2529) was established from an endometrial adenocarcinoma. The Hec50co cell line (RRID: CVCL_4Y59) consists of poorly differentiated endometrial tumor cells isolated from a patient with advanced disease. Both the Ishikawa and Hec50co cell lines were kindly provided by Dr. Kim K. Leslie (The University of New Mexico Health Sciences Center, Albuquerque, NM, USA). COV434 (RRID: CVCL_2010) were initially isolated from a patient diagnosed with a granulosa cell tumor but were recently classified as cells from a small-cell carcinoma of the ovary, hypercalcemic type.The COV434 cells were purchased from the European Collection of Authenticated Cell Cultures (ECACC) (#07071909). HFF-1 (RRID: CVCL_3285) is an immortalized human foreskin fibroblasts cell line, obtained from the American Type Culture Collection (ATCC), which was used as control, as they are non-tumorous cells. The Ishikawa and Hec50co cells were maintained in Dulbecco’s Modified Eagle Medium/F12 (DMEM/F12) supplemented with 5% Foetal Bovine Serum (FBS). COV434 cells were maintained in DMEM/F12 supplemented with 10% FBS. HFF-1 were maintained in Roswell Park Memorial Institute 1640 (RPMI 1640) supplemented with 10% FBS. All mediums were supplemented with 1% AB-AM and all cells were kept at 37 °C with 5% CO2. The treatment with the compounds was done in the respective cell medium supplemented with 2% FBS and 24 h after platting the cells in the culture medium with 5% FBS to allow their adherence.
The Ishikawa, Hec50co, COV434, and HFF-1 cell lines were plated at a density of 5 × 10^4 cells/well in transparent 96-well plates. After 24 h, the cells were treated with Mito6_TPP, Mito6_picol., or Mito6_isoq. (0.01–100 μM) and incubated at 37 °C with 5% CO2 for 24, 48, or 72 h. […] The conditions of the methylthiazolyldiphenyl-tetrazolium bromide (MTT) assay were adapted from the work of Banerjee et al.. Briefly, MTT was added to a final concentration of 0.5 mg/mL, and the cells were incubated for 3 h at 37 °C with 5% CO2. After the 3 h, purple MTT formazan crystals were dissolved by agitation for 15 min in a solution of DMSO/isopropanol (ratio 3:1) and quantified spectrophotometrically at 540 nm. The neutral red (NR) assay conditions were based on the work developed by Repetto et al.. Briefly, after the incubation time, cells were incubated with NR at 40 μg/mL in an FBS-free cell medium for 3 h. The cells were then incubated with a solution of 50% ethanol (96% v/v), 49% deionized water, and 1% glacial acetic acid, with shaking for 15 min. The NR extracted from the cells was measured at 540 nm. The LDH cytotoxicity assay was not performed on the HFF-1 cells due to the lack of evidence of cell death at the concentrations tested. After the incubation time, this assay was performed using a Thermo Scientific Pierce LDH Cytotoxicity Assay Kit according to the manufacturer’s instructions. For all assays, the absorbance was read using a BioTek Synergy HTX Multi-Mode Microplate Reader equipped with BioTek Gen5 Data Collection and Analysis Software (BioTek Instruments, Winooski, VT, USA).
Data were evaluated using the one- or two-way analysis of variance (ANOVA) test followed by Bonferroni’s test for multiple comparisons. The data presented was expressed as mean ± SEM (Standard Error of the Mean) of a minimum of three and a maximum of seven independent experiments performed in triplicate. Values of p < 0.05 were considered statistically significant. Half of the maximal effective concentration (EC50) values were estimated by interpolation of dose-response curves and reported as a mean with a 95% confidence interval (CI 95%). All statistical analysis was performed using GraphPad Prism Software 8.0 (GraphPad Software, Inc., San Diego, CA, USA). […]

[5] = HFF-1, 48 h of incubation, read-out: EC50 (decrease of viability), MTT Assay

| Compound | Cell morphology changes (Giemsa staining) (Ishikawa cells [1]) | Cell morphology changes (Giemsa staining) (COV434 cells [2]) | Mitochondrial membrane potential (Δψm) change vs untreated cells (Ishikawa cells [3]) | Mitochondrial membrane potential (Δψm) change vs untreated cells (COV434 cells [4]) | Mitochondrial membrane potential (Δψm) change vs untreated cells (Hec50co cells) | EC50 (HFF-1 cells; [5]) [µM] | EC50 (HFF-1 cells; HFF-1, 24 h, read-out: EC50 (decrease of viability), MTT assay) [µM] | EC50 (HFF-1 cells; HFF-1, 48 h, read-out: EC50 (decrease of viability), MTT Assay) [µM] | EC50 (HFF-1 cells; HFF-1, 72 h, read-out: EC50 (decrease of viability), MTT assay) [µM] |
| --- | --- | --- | --- | --- | --- | --- | --- | --- | --- |
| O=C(/C=C/c1ccc(O)c(O)c1)NCCCCCCCCCC[n+]1ccc2ccccc2c1 [Mito6_isoq.] | cell shape alterations | cell shape alterations; also recorded: indications of chromatin condensation | significant decrease | significant decrease | significant decrease | > 100 |  |  |  |
| Cc1cc[n+](CCCCCCCCCCNC(=O)/C=C/c2ccc(O)c(O)c2)cc1 [Mito6_picol.] | did not induce any morphological changes | did not induce any morphological changes | decrease | decrease | decrease only in the Ishikawa and COV434 cells | > 100 |  |  |  |
| O=C(/C=C/c1ccc(O)c(O)c1)NCCCCCCCCCC[P+](c1ccccc1)(c1ccccc1)c1ccccc1 [Mito6_TPP] | altered cell shapes and indications of chromatin condensation | altered cell shapes and indications of chromatin condensation | significant decrease | significant decrease | significant decrease |  | > 100 | 44.5 | 37 |
